Laboratory results: US12077503B2, “Substituted cyclic amides and their use as herbicides” (FMC CORPORATION, priority 2015, dated 2024)

Key:
Type in all cases: in vivo
Kochia (Kochia scoparia) [1] = assay: Test A preemergence; details: Bassia scoparia, pre-emergence, 240 h, preemergence, 0 to 100 scale where 0 is no effect and 100 is complete control, read-out: Kochia plant response rating
Outline: (§1)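 Compounds were formulated in a non-phytotoxic solvent mixture with surfactant and applied as a preemergence directed soil spray after seeding, or sprayed postemergence over plants 2 to 10 cm tall at the one- to two-leaf stage. Evaluation after about 10 d compared treated with untreated controls, using a scale from 0 (no effect) to 100 (complete control).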

[2] = test system: barnyardgrass (Echinochloa crus-galli); assay: Test A preemergence; details: Echinochloa crus-galli, pre-emergence, 240 h, preemergence, 0 to 100 scale where 0 is no effect and 100 is complete control, read-out: Barnyardgrass plant response rating
Outline: as §1

[3] = test system: giant foxtail (Setaria faberii); assay: Test A preemergence; details: Setaria faberi, pre-emergence, 240 h, preemergence, 0 to 100 scale where 0 is no effect and 100 is complete control, read-out: Foxtail, Giant plant response rating
Outline: as §1

[4] = test system: pigweed (Amaranthus retroflexus); assay: Test A preemergence; details: Amaranthus retroflexus, pre-emergence, 240 h, preemergence, 0 to 100 scale where 0 is no effect and 100 is complete control, read-out: Pigweed plant response rating
[5] = test system: ragweed (common ragweed, Ambrosia elatior); assay: Test A preemergence; details: Ambrosia artemisiifolia, pre-emergence, 240 h, preemergence, 0 to 100 scale where 0 is no effect and 100 is complete control, read-out: Ragweed plant response rating
Outline: as §1

[6] = test system: ryegrass, Italian (Italian ryegrass, Lolium multiflorum); assay: Test A preemergence; details: Lolium multiflorum, pre-emergence, 240 h, preemergence, 0 to 100 scale where 0 is no effect and 100 is complete control, read-out: Ryegrass, Italian plant response rating
Outline: as §1

[7] = test system: Galium (catchweed bedstraw, Galium aparine); assay: Test A postemergence; details: Galium, post-emergence, 240 h, postemergence
Outline: as §1

Kochia (Kochia scoparia) [8] = assay: Test A postemergence; details: Bassia scoparia, post-emergence, 240 h, postemergence
Outline: as §1

[9] = test system: blackgrass (Alopecurus myosuroides); assay: Test A postemergence; details: Alopecurus myosuroides, post-emergence, 240 h, postemergence
Outline: as §1

corn (Zea mays) = assay: Test A postemergence; details: Zea mays, post-emergence, 240 h, postemergence
Outline: as §1

[10] = test system: giant foxtail (Setaria faberii); assay: Test A postemergence; details: Setaria faberi, post-emergence, 240 h, postemergence
Outline: as §1

[11] = test system: pigweed (Amaranthus retroflexus); assay: Test A postemergence; details: Amaranthus retroflexus, post-emergence, 240 h, postemergence
Outline: as §1

[12] = test system: ragweed (common ragweed, Ambrosia elatior); assay: Test A postemergence; details: Ambrosia artemisiifolia, post-emergence, 240 h, postemergence
Outline: as §1

[13] = test system: ryegrass, Italian (Italian ryegrass, Lolium multiflorum); assay: Test A postemergence; details: Lolium multiflorum, post-emergence, 240 h, postemergence
Outline: as §1

[14] = test system: wheat (Triticum aestivum); assay: Test A postemergence; details: Triticum aestivum, post-emergence, 240 h, postemergence
Outline: as §1

[15] = 125 g ai/ha, visual injury rating, approximately 10 d

## Cc1c(F)cccc1NC(=O)[C@H]1C(=O)N(C)C[C@@H]1c1ccc(C(F)(F)F)nc1 [Compound 1197]
Kochia (Kochia scoparia) [1]; [15]
  pest or weed control at 125 g/ha: 100%
Kochia (Kochia scoparia) [1]; 500 g ai/ha
  pest or weed control at 500 g/ha: 100%
[2]; [15]
  pest or weed control at 125 g/ha: 100%
[2]; 500 g ai/ha
  pest or weed control at 500 g/ha: 100%
[3]; [15]
  pest or weed control at 125 g/ha: 100%
[3]; 500 g ai/ha
  pest or weed control at 500 g/ha: 100%
[4]; [15]
  pest or weed control at 125 g/ha: 80%
[4]; 500 g ai/ha
  pest or weed control at 500 g/ha: 80%
[5]; [15]
  pest or weed control at 125 g/ha: 100%
[5]; 500 g ai/ha
  pest or weed control at 500 g/ha: 100%
[6]; [15]
  pest or weed control at 125 g/ha: 70%
[6]; 500 g ai/ha
  pest or weed control at 500 g/ha: 70%
[7]; 125 g ai/ha, visual injury vs untreated controls after approx. 10 d, 0 = no effect, 100 = complete control, read-out: Galium plant response rating (0 to 100 scale)
  pest or weed control at 125 g/ha: 60%
[7]; 500 g ai/ha, 0 to 100 scale, 0 is no effect, 100 is complete control, read-out: Galium plant response rating
  pest or weed control at 500 g/ha: 60%
Kochia (Kochia scoparia) [8]; 125 g ai/ha, visual injury vs untreated controls after approx. 10 d, 0 = no effect, 100 = complete control, read-out: Kochia plant response rating (0 to 100 scale)
  pest or weed control at 125 g/ha: 70%
Kochia (Kochia scoparia) [8]; 500 g ai/ha, 0 to 100 scale, 0 is no effect, 100 is complete control, read-out: Kochia plant response rating
  pest or weed control at 500 g/ha: 80%
[9]; 125 g ai/ha, visual injury vs untreated controls after approx. 10 d, 0 = no effect, 100 = complete control, read-out: Blackgrass plant response rating (0 to 100 scale)
  pest or weed control at 125 g/ha: 50%
[9]; 500 g ai/ha, 0 to 100 scale, 0 is no effect, 100 is complete control, read-out: Blackgrass plant response rating
  pest or weed control at 500 g/ha: 50%
Corn (Zea mays); 125 g ai/ha, visual injury vs untreated controls after approx. 10 d, 0 = no effect, 100 = complete control, read-out: Corn plant response rating (0 to 100 scale)
  plant injury at 125 g/ha: 80%
Corn (Zea mays); 500 g ai/ha, 0 to 100 scale, 0 is no effect, 100 is complete control, read-out: Corn plant response rating
  plant injury at 500 g/ha: 90%
[10]; 125 g ai/ha, visual injury vs untreated controls after approx. 10 d, 0 = no effect, 100 = complete control, read-out: Foxtail, Giant plant response rating (0 to 100 scale)
  pest or weed control at 125 g/ha: 90%
[10]; 500 g ai/ha, 0 to 100 scale, 0 is no effect, 100 is complete control, read-out: Foxtail, Giant plant response rating
  pest or weed control at 500 g/ha: 90%
[11]; 125 g ai/ha, visual injury vs untreated controls after approx. 10 d, 0 = no effect, 100 = complete control, read-out: Pigweed plant response rating (0 to 100 scale)
  pest or weed control at 125 g/ha: 50%
[11]; 500 g ai/ha, 0 to 100 scale, 0 is no effect, 100 is complete control, read-out: Pigweed plant response rating
  pest or weed control at 500 g/ha: 70%
[12]; 125 g ai/ha, visual injury vs untreated controls after approx. 10 d, 0 = no effect, 100 = complete control, read-out: Ragweed plant response rating (0 to 100 scale)
  pest or weed control at 125 g/ha: 50%
[12]; 500 g ai/ha, 0 to 100 scale, 0 is no effect, 100 is complete control, read-out: Ragweed plant response rating
  pest or weed control at 500 g/ha: 60%
[13]; 125 g ai/ha, visual injury vs untreated controls after approx. 10 d, 0 = no effect, 100 = complete control, read-out: Ryegrass, Italian plant response rating (0 to 100 scale)
  pest or weed control at 125 g/ha: 30%
[13]; 500 g ai/ha, 0 to 100 scale, 0 is no effect, 100 is complete control, read-out: Ryegrass, Italian plant response rating
  pest or weed control at 500 g/ha: 60%
[14]; 125 g ai/ha, visual injury vs untreated controls after approx. 10 d, 0 = no effect, 100 = complete control, read-out: Wheat plant response rating (0 to 100 scale)
  plant injury at 125 g/ha: 50%
[14]; 500 g ai/ha, 0 to 100 scale, 0 is no effect, 100 is complete control, read-out: Wheat plant response rating
  plant injury at 500 g/ha: 60%
